Data published in ChEMBL document CHEMBL1201862, “PubChem BioAssay data set” (2004).
Where a name gives a salt, the structure may show the parent alone.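 A five-concentration, 48-hour dose response in 96-well plates underlies each endpoint, interpolated linearly between surrounding concentrations. The concentration for 50% growth inhibition is given as GI50.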 The source made the active and inactive calls. Cut-off read from the data, not from the text of the source: active = GI50 up to about 1.1 µM and inactive = higher.

Key:
Assay in all cases: NCI tumour cell line growth inhibition, 48 h
UACC-62 = system: UACC-62
SK-MEL-5 = system: SK-MEL-5
LOX IMVI = system: LOX IMVI
U-251 = system: U-251
COLO 205 = system: COLO 205
RXF 393 = system: RXF 393
BT-549 = system: BT-549
NCI-H460 = system: NCI-H460
HCT-116 = system: HCT-116
HOP-62 = system: HOP-62
M14 = system: M14
K562 = system: K562
RPMI-8226 = system: RPMI-8226
OVCAR-8 = system: OVCAR-8
HCC 2998 = system: HCC 2998
DU-145 = system: DU-145
Hs-578T = system: Hs-578T
NCI-H23 = system: NCI-H23
NCI-H522 = system: NCI-H522
MCF7 = system: MCF7

Measured: GI50

NCCSSCCN [CYSTAMINE HYDROCHLORIDE]
inactive: UACC-62 > 100 µM | SK-MEL-5 > 100 µM | LOX IMVI > 100 µM | U-251 > 100 µM | COLO 205 > 100 µM | RXF 393 > 100 µM | BT-549 > 100 µM | NCI-H460 > 100 µM | HCT-116 > 100 µM | HOP-62 > 100 µM | M14 > 100 µM | K562 > 100 µM | RPMI-8226 > 100 µM | OVCAR-8 > 100 µM | HCC 2998 > 100 µM | DU-145 > 100 µM | Hs-578T > 100 µM | NCI-H23 > 100 µM | NCI-H522 > 100 µM | MCF7 > 100 µM
